Measured values published in patent US11034679B2 (priority 2017, dated 2021).
Where two headings read alike, the source gives them in different places.

How the values were obtained:
MOR [1] = target: T1, MOR (Homo sapiens, UniProt P35372); assay: cell-based; format: cell-based; design: expressed in transfected cells; host or cells: CHO cells stably expressing MOR; conditions: for MOR potency relative to kurkinorin: cAMP assay, Table 1
Target sequence in this assay (P35372 whole entry): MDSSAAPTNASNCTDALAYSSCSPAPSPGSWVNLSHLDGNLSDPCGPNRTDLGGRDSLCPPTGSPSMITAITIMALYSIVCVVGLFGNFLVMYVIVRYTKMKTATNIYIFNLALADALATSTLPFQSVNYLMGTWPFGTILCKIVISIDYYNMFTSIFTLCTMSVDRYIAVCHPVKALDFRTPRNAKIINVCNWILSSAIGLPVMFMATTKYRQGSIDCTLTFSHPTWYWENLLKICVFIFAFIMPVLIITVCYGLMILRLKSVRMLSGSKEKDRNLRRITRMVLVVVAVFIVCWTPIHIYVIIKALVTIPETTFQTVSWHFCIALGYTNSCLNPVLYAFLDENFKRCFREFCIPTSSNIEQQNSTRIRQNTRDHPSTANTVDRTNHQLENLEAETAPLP

MOR [2] = target: T1, MOR; assay: cell-based; design: host or cells: CHO-K1 OPRM1 β-arrestin-2 cells; conditions: for Emax: read-out: % Efficacy (maximum efficacy based on DAMGO maximum stimulation)
Target sequence in this assay (P35372 whole entry): as above
Target sequence in this assay (P32121 whole entry partner): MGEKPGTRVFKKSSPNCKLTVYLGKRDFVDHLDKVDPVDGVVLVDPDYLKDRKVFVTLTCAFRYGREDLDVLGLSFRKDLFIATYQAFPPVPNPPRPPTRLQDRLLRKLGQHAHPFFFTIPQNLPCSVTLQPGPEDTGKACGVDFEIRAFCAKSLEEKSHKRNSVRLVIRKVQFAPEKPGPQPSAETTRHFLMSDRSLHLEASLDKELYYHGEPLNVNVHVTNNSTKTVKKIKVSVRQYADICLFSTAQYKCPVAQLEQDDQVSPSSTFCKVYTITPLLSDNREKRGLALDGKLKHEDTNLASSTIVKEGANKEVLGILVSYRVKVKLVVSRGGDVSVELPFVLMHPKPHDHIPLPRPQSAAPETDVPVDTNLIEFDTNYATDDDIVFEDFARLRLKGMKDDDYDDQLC

mice [3] = assay: hot water tail-flick tolerance evaluation; format: in vivo; conditions: daily i.p. for 9 days, 10 mg/kg morphine or 5 mg/kg compound 3.46, latency 30 min after dose
mice [4] = assay: accelerating rotarod performance assay; conditions: preliminary data, compared to morphine
[5] = CHO cells expressing MOR, read-out: EC50 (inhibition of cAMP accumulation)

Compound | EC50 (MOR [1]; [5]) [nM] | Bias Factor (MOR [2]) | EC50 (MOR [2]) [nM] | Emax (MOR [2]) [%] | EC50 (MOR [1]) [nM] | MOR potency relative to kurkinorin (MOR [1]) | melting point [°C] | antinociceptive effects (% maximal possible effect) on daily administration (mice [3]) | effects on motor coordination (mice [4]) | Emax (MOR [1]; CHO) [%]
COC(=O)[C@@H]1C=C(OC(=O)c2ccc3ccoc3c2)C(=O)[C@H]2[C@@]1(C)CC[C@H]1C(=O)O[C@H](c3ccoc3)C[C@]21C [Entry 1, Methyl (2S,4aR,6aR,7R,10aR,10bR)-9-((benzofuran-6-carbonyl)oxy)-2-(furan-3-yl)-6a,10b-dimethyl-4,10-dioxo-1,4,4a,5,6,6a,7,10,10a,10b-decahydro-2H-benzo[f]isochromene-7-carboxylate] | 1.5 ± 0.6 | 2.62 | 40 | 90 |  |  |  |  |  | 
COCc1ccc(C(=O)OC2=C[C@@H](C(=O)OC)[C@]3(C)CC[C@H]4C(=O)O[C@H](c5ccoc5)C[C@]4(C)[C@H]3C2=O)cc1 [Entry 5, Methyl (2S,4aR,6aR,7R,10aR,10bR)-2-(furan-3-yl)-9-((4-(methoxymethyl)benzoyl)oxy)-6a,10b-dimethyl-4,10-dioxo-1,4,4a,5,6,6a,7,10,10a,10b-decahydro-2H-benzo[f]isochromene-7-carboxylate] | 13 ± 3 | 1.98 | 360 | 74 |  |  |  |  |  | 
COC(=O)[C@@H]1C=C(OC(=O)c2ccc(C(N)=O)cc2)C(=O)[C@H]2[C@@]1(C)CC[C@H]1C(=O)O[C@H](c3ccoc3)C[C@]21C [Entry 6] |  | 1.57 | 10 | 119 | 0.19 ± 0.03 | almost an order of magnitude more potent than kurkinorin |  |  |  | 
COC(=O)[C@@H]1C=C(OC(=O)c2ccc(CO)cc2)C(=O)[C@H]2[C@@]1(C)CC[C@H]1C(=O)O[C@H](c3ccoc3)C[C@]21C [Entry 3, Methyl (2S,4aR,6aR,7R,10aR,10bR)-2-(furan-3-yl)-9-((4-(hydroxymethyl)benzoyl)oxy)-6a,10b-dimethyl-4,10-dioxo-1,4,4a,5,6,6a,7,10,10a,10b-decahydro-2H-benzo[f]isochromene-7-carboxylate] | 0.03 ± 0.01 | 0.14 | 14 | 81 |  | about two orders of magnitude more potent than kurkinorin | 115 to 118 | maintained antinociceptive efficacy from days 1-9 | significantly less effects on motor coordination than morphine | 
COC(=O)[C@@H]1C=C(OC(=O)c2ccc3c(c2)C(=O)NC3)C(=O)[C@H]2[C@@]1(C)CC[C@H]1C(=O)O[C@H](c3ccoc3)C[C@]21C [Entry 8, (2S,4aR,6aR,7R,10aR,10bR)-2-(furan-3-yl)-7-(methoxycarbonyl)-6a,10b-dimethyl-4,10-dioxo-1,4,4a,5,6,6a,7,10,10a,10b-decahydro-2H-benzo[f]isochromen-9-yl 3-oxoisoindoline-5-carboxylate] | 2.2 ± 0.2 | 0.65 | 190 | 76 |  |  |  |  |  | 
C[C@@H](NC(=O)[C@@H](N)Cc1ccc(O)cc1)C(=O)NCC(=O)N(C)[C@@H](Cc1ccccc1)C(=O)NCCO [DAMGO, reference compound] |  | 1.0 |  |  |  |  |  |  |  | 
COC(=O)[C@@H]1C=C(OC(=O)c2ccc3occc3c2)C(=O)[C@H]2[C@@]1(C)CC[C@H]1C(=O)O[C@H](c3ccoc3)C[C@]21C [Entry 2, Methyl (2S,4aR,6aR,7R,10aR,10bR)-9-((benzofuran-5-carbonyl)oxy)-2-(furan-3-yl)-6a,10b-dimethyl-4,10-dioxo-1,4,4a,5,6,6a,7,10,10a,10b-decahydro-2H-benzo[f]isochromene-7-carboxylate] |  | 1.21 | 490 | 84 | 9 ± 2 |  |  |  |  | 
COC(=O)[C@@H]1C=C(OC(=O)c2cccc(C(N)=O)c2)C(=O)[C@H]2[C@@]1(C)CC[C@H]1C(=O)O[C@H](c3ccoc3)C[C@]21C |  |  | > 25000 | 0 | > 10000 |  |  |  |  | 0
COC(=O)[C@@H]1C=C(OC(=O)c2ccc3c(c2)CNC3=O)C(=O)[C@H]2[C@@]1(C)CC[C@H]1C(=O)O[C@H](c3ccoc3)C[C@]21C [Entry 9, (2S,4aR,6aR,7R,10aR,10bR)-2-(furan-3-yl)-7-(methoxycarbonyl)-6a,10b-dimethyl-4,10-dioxo-1,4,4a,5,6,6a,7,10,10a,10b-decahydro-2H-benzo[f]isochromen-9-yl 1-oxoisoindoline-5-carboxylate] | 3.2 ± 0.7 | 0.81 | 260 | 88 |  |  |  |  |  | 
COC(=O)[C@@H]1C=C(OC(=O)c2cccc(CO)c2)C(=O)[C@H]2[C@@]1(C)CC[C@H]1C(=O)O[C@H](c3ccoc3)C[C@]21C [Entry 4, Methyl (2S,4aR,6aR,7R,10aR,10bR)-2-(furan-3-yl)-9-((3-(hydroxymethyl)benzoyl)oxy)-6a,10b-dimethyl-4,10-dioxo-1,4,4a,5,6,6a,7,10,10a,10b-decahydro-2H-benzo[f]isochromene-7-carboxylate] | 2.42 ± 0.07 | 0.87 | 150 | 75 |  |  | 104 to 106 |  |  | 
